{"source": "patent US20150305333A1", "about": "“USE OF GLUCOSAMINE AMIDES AS PLANT GROWTH AND YIELD ENHANCERS” (PIONEER HI-BRED INTERNATIONAL, INC., priority 2012, published 2015)", "test_system": "corn seeds", "assay": "Petri dish seed germination assay, corn", "type": "in vivo", "description": "A series of Petri dish seed assays was conducted to evaluate the effects NPG on the seed germination rates of corn, soybean, and canola seeds subjected to cold stress, salt stress and non-stressed conditions (salt stress only for canola). Assays were performed with ten replications of ten seeds/plate (100 total seeds). NPG was applied to seeds at the specified concentrations prior to being placed in Petri plates. Seeds designated for Salt Stress Experiments 1 & 2 were placed in Petri dishes containing a 100 mM NaCl solution and incubated at 21° C.-22° C. in the dark. Cold stress Petri dishes were incubated at 15° C. in the dark. Untreated Controls were incubated at 21° C.-22° C. in the dark as were seeds utilized in the separately conducted non-stressed germination assays. Data was recorded as percent germination at designated times after plating. Statistical analyses were performed using one-way Anova and Kruskal-Wallis one-way analysis of variance on rank combined with Dunn's all pairwise multiple comparison procedure (α=0.05).", "data": [{"substance": "Methyl 2-deoxy-2-N-(hexadece-9,10-cis-eneoyl)-β-D-glucopyranoside [NPG]", "values": [{"measurement": "Corn Seed Germination", "setting": "Salt Stress (100 mM NaCl) Experiment 1, 10^−6M, 30 HAP", "value": 34, "unit": "a %"}, {"measurement": "Corn Seed Germination", "setting": "Salt Stress (100 mM NaCl) Experiment 1, 10^−6M, 40 HAP", "value": 83, "unit": "a %"}, {"measurement": "Corn Seed Germination", "setting": "Salt Stress (100 mM NaCl) Experiment 1, 10^−6M, 48 HAP", "value": 96, "unit": "a %"}, {"measurement": "Corn Seed Germination", "setting": "Salt Stress (100 mM NaCl) Experiment 1, 10^−7M, 30 HAP", "value": 23, "unit": "a %"}, {"measurement": "Corn Seed Germination", "setting": "Salt Stress (100 mM NaCl) Experiment 1, 10^−7M, 40 HAP", "value": 68, "unit": "a %"}, {"measurement": "Corn Seed Germination", "setting": "Salt Stress (100 mM NaCl) Experiment 1, 10^−7M, 48 HAP", "value": 91, "unit": "a %"}]}]}
